Experimental data taken from US20150361503A1, “METHODS FOR SELECTING THERAPEUTICS FOR TREATMENT OF HER2+ CANCERS” (Merrimack Pharmaceuticals, Inc., priority 2014, published 2015).

Test system: HER2+ cell lines
Assay: In vitro cell growth assays: drug combination effects (CellTiter-Glo cell viability)
Type: cell-based
Procedure: Cells (BT474-M3, NCI-N87, NCI-N87-PIK3CA(wt), NCI-N87-PIK3CA(H1047R), NCI-N87-PIK3CA(E454K), COLO-678, KYSE-410, ZR75-1, MDA-MB-361 or MDA-MB-175-VII) are seeded at 700 cells per 384-well plate in 10% FBS cell growth medium and treated with the five drugs, separately or in combination, at […], with and without 5 nM HRG-β1 pre-stimulation (for four hours). Cell viability was determined 72 hours later with CellTiter-Glo® luminescent cell viability assay (Promega).
This panel included cells harboring PI3KCA-activating mutations (both natural and engineered), PTEN deletions, and KRAS-activating mutations, as well as PI3K and MAPK-wild type cells. To clarify and summarize the drug-response relationships, multivariate regression models were parameterized for each cell line, simulating % cell growth inhibition as linear combinations of the five input drug concentrations. Regression coefficients for each drug were grouped by mutational background and the presence or absence of heregulin stimulation, and average values computed (FIG. 4B).

Compound	sensitivity of PI3K-mutant cells to drug-containing regimens (PI3K-mutant cells (MDA-MB-361, ZR-75-1, and NCI-N87-PIK3CA))	effect of HRG on sensitivity of cells to the drug (cell growth inhibition) (presence of 5 nM exogenous HRG, regardless of genetic background)	sensitivity of wild-type cells to drug-containing regimens (wild-type cells)
NC1(c2ccc(-c3nc4ccn5c(=O)[nH]nc5c4cc3-c3ccccc3)cc2)CCC1 [MK2206]	most sensitive	–	–
CS(=O)(=O)CCNCc1ccc(-c2ccc3ncnc(Nc4ccc(OCc5cccc(F)c5)c(Cl)c4)c3c2)o1 [lapatinib]	–	desensitizes	most sensitive
